Data published in US10711011B2, “Substituted oxazolidines as anti-bacterial agents” (BUGWORKS RESEARCH, INC., priority 2016, dated 2020).

Test system: E. coli [ATCC 25922]
Test: In vivo efficacy in the mouse E. coli thigh infection model
Details: neutropenic BALB/c mice, oral
Procedure: To assess the Oral efficacy, Example 13 was tested in BALB/c mice thigh infection model following per oral doses of 100 mg/kg once, 50 mg/kg once and twice, 33 mg/kg thrice and 25 mg/kg four times over a 24 hour period post infection. This study was performed following all ethical practices as laid down in the guidelines for animal care (Registration number No. 1852/PO/Rc/S/16/CPCSEA). The study was approved by the Institutional Animals Ethics Committee (IAEC) of the test facility. The formulation used was 0.1% Tween80 in 0.25% CMC and Example 13 administered as suspension through an oral gavage. Neutropenic mice were infected with [˜1×10^6 CFU/mouse] E. coli [ATCC 25922] by intramuscular route. Two hours post infection, mice were treated orally with total doses of 100, 50, 50, 33 and 25 mg/kg of Example 13 as one, two, three and four equally divided doses over a 24 h period. Animals were sacrificed 24 hr post infection and thigh tissues were harvested to enumerate the bacterial CFU count. Thigh muscles were placed in 1 ml of sterile LB broth and homogenized using a homogenizer (Omni Tip (220 volt hand held)). Serial ten-fold dilutions of the thigh homogenates were prepared in sterile LB broth, 0.05 ml of four dilutions for each thigh was plated onto Lactose agar plates. […]

`CN1C(=O)Cc2ccc(F)c(CCNCCC3CN(c4ccc5c(n4)NC(=O)CO5)C(=O)O3)c21` (single isomer, unassigned) [Example 13, 6-(5-(2-((2-(6-fluoro-1-methyl-2-oxoindolin-7-yl)ethyl)amino)ethyl)-2-oxooxazolidin-3-yl)-2H-pyrido[3,2-b][1,4]oxazin-3(4H)-one] was tested, and the “efficacy (bacterial density Log 10 CFU/thigh vs vehicle)” value (100 mg/kg as single, two, three and four equally divided doses over 24 h) was “significant efficacy” and the “efficacy (bacterial density Log 10 CFU/thigh vs vehicle)” value (single dose of 50 mg/kg) was “ineffective”.
